AC35 data for 91 compounds are collected here from PubChem BioAssay AID743395 (Broad Institute, 2014).

This assay has as its system HepG2 viability, CellTiter-Glo ATP luminescence, 72 h. The assay can be described thus: HepG2 cell cytotoxicity, dose response, cytotoxicity control, CellTiter-Glo luminescence, cherry-pick, set 2 (AID 743395). (ATP-based viability assays read luminescence as a measure of living cells.)
Take `O=C(NCCN1C(=O)S/C(=C\c2ccc(OC(F)F)cc2)C1=O)c1cnccn1`: the AC35 is 10.5 µM.

As for `Nc1ccc2c3c(cccc13)C(=O)N(c1ccccc1)C2=O`, the AC35 was 10.7 µM.

For `Cc1cc(/C=N/n2c(COc3ccccc3C)nc3ccccc3c2=O)c(O)c([N+](=O)[O-])c1`, the AC35 is 8.05 µM.

Take `COc1cc(/C=C2/SC(=Nc3ccc(O)cc3)NC2=O)cc(OC)c1O`: the AC35 was 14.7 µM.

Take `CC(=NNC(=O)c1ccncc1)c1ccc2ccccc2c1O`: the AC35 is 2.59 µM.

In the case of `CCN(CC)C(=O)c1oc2ccc(S(=O)(=O)N3CC(C)CC(C)C3)cc2c1C` (stereo unspecified), the AC35 is 12.9 µM.

Take `COc1ccc(C2=Nn3c(nnc3-c3ccccc3OC)SC2)cc1OC1CCOC1` (stereo unspecified): the AC35 is 7.54 µM.

As for `C=C1C(=O)O[C@@H]2[C@H]1[C@@H](OC(=O)/C(C)=C/C)C/C(C)=C\C(=O)/C=C(\C)[C@@H]2O`, the AC35 is 8.97 µM.

`COc1cc(OC)c(-c2c3cc(O)c(=O)cc-3oc3cc(O)c(O)cc23)cc1OC`: the AC35 was 13.2 µM.

Turning to `Cn1c(C(=O)c2ccccc2[N+](=O)[O-])nc2ccccc21`, the AC35 is 14.3 µM.

`O=C(N/N=C/c1c(O)ccc2ccccc12)c1ccc(CO)nc1`: the AC35 was 5.89 µM.

With `COc1cc2c(cc1OC)C(C)N(C(=O)Nc1cc(C)cc(C)c1)CC2` (stereo unspecified), the AC35 was 7.81 µM.

Consider `COc1ccc(Nc2nc3cc(-c4sccc4C)sc3c(=O)n2C)cc1OC`, for which the AC35 was 5.88 µM.

As for `COc1ccc(S(=O)(=O)Nc2cccc3ccc(O)cc23)cc1`, the AC35 was 13.8 µM.

`O=C(NCc1ccccc1)C1Cc2c(-c3ccc(Cl)cc3)ccnc2O1` (stereo unspecified): the AC35 is 9.8 µM.

`CC(=O)NC(c1ccc2ccccc2c1)c1ccc2cccnc2c1O` (stereo unspecified): the AC35 was 0.641 µM.

Take `COc1ccccc1Nc1nc(-c2sc(NC(=O)C(C)(C)C)nc2C)cs1`: the AC35 is 15.7 µM.

For `Cc1cccc(N2CCN(C(=O)c3c(-c4ccccc4)noc3C)CC2)c1C`, the AC35 was 4.42 µM.

Consider `Cc1cc(Br)cc(/C=N/NC(=O)c2ccc3c(c2)OCO3)c1O`, for which the AC35 was 8 µM.

As to `O=C1/C(=C\c2ccc(O)cc2)SC(=S)N1Cc1ccccc1`, the AC35 is 17.3 µM.

Consider `Cn1cccc1/C=C1\SC(=Nc2ccccc2)NC1=O`, for which the AC35 is 4.22 µM.

On to `CCCCn1c(CN2CCN(c3cccc(Cl)c3)CC2)nc2c1c(=O)[nH]c(=O)n2C`, for which the AC35 was 12.3 µM.

Turning to `Brc1ccc2c(c1)C(C1=NCCN1)c1ccccc1CS2` (stereo unspecified), the AC35 is 18.3 µM.

For the compound `CC(=O)Nc1cccc(-c2ccnc3c2CC(C)(C(=O)Nc2ccc4c(c2)OCO4)O3)c1` (stereo unspecified), the AC35 is 17.4 µM.

As to `COc1ccc2noc3c2c1C(=O)c1ccccc1-3`, the AC35 is 15.4 µM.

With `C[C@@H]1CN([C@@H](C)CO)C(=O)Cc2cc(NC(=O)Nc3cccc4ccccc34)ccc2O[C@@H]1CN(C)Cc1ccc(Cl)c(Cl)c1`, the AC35 was 14.5 µM.

Consider `C[C@H]1CN([C@@H](C)CO)S(=O)(=O)c2ccc(C#CC3CCCCC3)cc2O[C@H]1CN(C)Cc1cccnc1`, for which the AC35 is 22.2 µM.

Take `O=C(CCCN1CCC(O)(c2cccc(C(F)(F)F)c2)CC1)c1ccc(F)cc1`: the AC35 was 22.2 µM.

Turning to `COc1ccc2cc(CN(CC3CCCO3)C(=S)Nc3ccccc3)c(=O)[nH]c2c1` (stereo unspecified), the AC35 was 13 µM.

For `COc1ccc(C2=NOC(C(=O)NCc3ccc(F)cc3)C2)cc1OC` (stereo unspecified), the AC35 is 7.73 µM.

For `CC(=NNC(=S)Nc1ccc(C)cc1)c1ccccn1`, the AC35 was 0.123 µM.

`COc1cc(NC(=O)N2CCNC2=O)cc(C(=O)Nc2cccc(C(F)(F)F)c2)c1`: the AC35 is 1.54 µM.

Take `CC(C)N1CCc2c(sc(NC(=O)c3ccc([N+](=O)[O-])o3)c2C(N)=O)C1`: the AC35 was 4.77 µM.

For the compound `C[C@@H]1CCCCO[C@H](CN(C)Cc2ccc(Cl)c(Cl)c2)[C@@H](C)CN([C@@H](C)CO)C(=O)c2cc(NS(=O)(=O)c3ccc(Cl)cc3)ccc2O1`, the AC35 was 10.6 µM.

As for `CN(C)CCCN(C(=O)c1ccco1)c1nc(-c2ccc(Cl)cc2)cs1`, the AC35 is 22.2 µM.

Turning to `O=C(c1ccc(Br)cc1)c1cc([N+](=O)[O-])ccc1N1CCOCC1`, the AC35 was 3.19 µM.

`COc1ccc(OC)c2[nH]c(C(=O)N/N=C/c3ccccc3O)cc12`: the AC35 is 3.77 µM.

In the case of `CCOC(=O)c1ccc(-c2c(-c3cc(OC)c(OC)c(OC)c3)noc2C)cc1F`, the AC35 is 5.6 µM.

Take `COC(=O)c1ccccc1-c1c2ccc(=N)cc-2oc2cc(N)ccc12`: the AC35 is 15.8 µM.

For `COc1cccc(C2c3cc4c(cc3OC(NNC(N)=O)C2C)OCO4)c1O` (stereo unspecified), the AC35 is 14.3 µM.

Consider `COc1ccc(OC)c(-c2cc(-c3cccnc3)nc(N)c2C#N)c1`, for which the AC35 is 10.6 µM.

In the case of `O=C1NC(=O)C(=Cc2c(Cl)cccc2Cl)C(=O)N1`, the AC35 was 22.2 µM.

As to `CCN(CC)c1ccc(/C=N/NC(=O)c2cnccn2)c(O)c1`, the AC35 was 1.61 µM.

As for `CCOC(=O)c1c(C)[nH]c(C(=O)N/N=C\c2ccccc2O)c1C`, the AC35 is 2.34 µM.

For `Cc1cccc(N2CCN(S(=O)(=O)c3cc(-c4cc(C)no4)ccc3C)CC2C)c1` (stereo unspecified), the AC35 was 17.4 µM.

`CC1=NN(c2ccccc2)C(=O)C1N=Nc1cccc(O)c1` (stereo unspecified): the AC35 is 19 µM.

For `O=C1NC(=Nc2ccc(O)cc2)S/C1=C/c1ccco1`, the AC35 was 11.7 µM.

For `COc1ccc([C@H]2C[C@H](O)[C@@H](n3cc(-c4ccc(F)cc4)nn3)CN2Cc2cccs2)cc1`, the AC35 is 6.12 µM.

Consider `CCC(COC(=O)c1cc(OC)c(OC)c(OC)c1)(c1ccccc1)N(C)C` (stereo unspecified), for which the AC35 is 18.4 µM.

For the compound `C=C1SC(Nc2c(C)cc(C)cc2C)=NC12CCCCC2`, the AC35 was 17.2 µM.

Consider `CCN(CC)CCn1nc2c3c(cccc3c1=O)-c1ccccc1-2`, for which the AC35 is 2.82 µM.

For `CC(=O)NC(c1ccc(C(C)C)cc1)c1ccc2cccnc2c1O` (stereo unspecified), the AC35 is 0.861 µM.

Turning to `C[C@@H]1CN([C@H](C)CO)S(=O)(=O)c2ccc(-c3ccccc3)cc2O[C@H]1CN(C)Cc1ccccn1`, the AC35 is 16.7 µM.

On to `COC1C(C)OC(OC2CC(C)(O)Cc3cc4c(c(O)c32)C(=O)c2c(O)cc3c(c2C4=O)OC2OC3(C)C(O)C(N(C)C)C2O)C(OC)C1(C)OC` (stereo unspecified), for which the AC35 was 5.03 µM.

`COc1ccccc1NC(=O)CSc1ccc(-c2ccccn2)nn1`: the AC35 is 20.4 µM.

Take `CC(=O)Nc1ccc(S(=O)(=O)NC2=C(N3CCN(Cc4ccccc4)CC3)C(=O)c3ccccc3C2=O)cc1`: the AC35 is 17.1 µM.

Turning to `Cc1cccc(Nc2nc(N)nc(-c3oc4ccccc4c3C)n2)c1`, the AC35 was 15.4 µM.

For `CC1(C(=O)NCc2ccccc2)Cc2c(-c3ccc(C(N)=O)cc3)ccnc2O1` (stereo unspecified), the AC35 was 13.8 µM.

On to `O=C(NCCOc1ccccc1F)c1cc([N+](=O)[O-])ccc1N1CCOCC1`, for which the AC35 is 13.6 µM.

Take `CCCC(=O)NC(c1ccc(C(C)C)cc1)c1ccc2cccnc2c1O` (stereo unspecified): the AC35 is 0.948 µM.

For the compound `CCC(=O)NC(c1ccc(C)cc1)c1ccc2cccnc2c1O` (stereo unspecified), the AC35 was 1.42 µM.

Consider `C=CCCC(=O)Nc1nc(C)c(-c2csc(Nc3cc(OC)ccc3OC)n2)s1`, for which the AC35 was 5.68 µM.

On to `COCCNC(=O)c1cc(-c2ccc(-c3ccccc3)cc2)nc2ccccc12`, for which the AC35 was 17.9 µM.

For the compound `COc1ccc(NC(=O)c2nc(C)c(C3(C)CC(c4cccnc4)=NO3)s2)cc1` (stereo unspecified), the AC35 is 13.9 µM.

As to `COc1ccc(/C=N/NC(=S)Nc2ccccc2[N+](=O)[O-])cc1O`, the AC35 is 14.4 µM.

As for `CN(C)CCn1c2ccccc2c2nc3ccc([N+](=O)[O-])cc3cc21`, the AC35 was 20.8 µM.

Consider `O=C1CN(S(=O)(=O)Cc2ccccc2)C[C@@H]2[C@@H](c3ccc(C#Cc4cccc(F)c4)cc3)[C@@H](CO)N12`, for which the AC35 was 7.38 µM.

Turning to `CCN1CCN(c2cc(C)c3cc(NC(=O)c4ccc(OC)c(OC)c4)ccc3n2)CC1`, the AC35 is 12.4 µM.

For the compound `CCN(CC)CCn1c2ccccc2c2nc3ccccc3nc21`, the AC35 was 19.9 µM.

`O=C1CN(S(=O)(=O)Cc2ccccc2)C[C@@H]2[C@@H](c3ccc(C#Cc4cccc(F)c4)cc3)[C@H](CO)N12`: the AC35 is 14.1 µM.

`N#Cc1c(-c2ccc(F)cc2)c(-c2ccc(F)cc2)nn(CCO)c1=O`: the AC35 was 4.03 µM.

Turning to `Cn1cc(C(=O)N/N=C/c2ccc3c(c2)OCO3)c2ccccc21`, the AC35 is 11.2 µM.

With `COc1ccccc1N=C1SC(C(=O)Nc2cccc(Cl)c2Cl)C(N)=C1C(N)=O` (stereo unspecified), the AC35 is 18.4 µM.

For `CC(=O)c1ccc(Nc2cc(C)nc3c(C)cc(C)cc23)cc1`, the AC35 is 7.71 µM.

`CN(C)CCNc1ccc2ncn3c4ccc(O)cc4c(=O)c1c23`: the AC35 was 2.3 µM.

`O=C1c2ccccc2C(=O)c2c1cccc2N(CCO)CCO`: the AC35 is 16.7 µM.

Consider `CCCn1c(CN2CCN(C(=O)OCC)CC2)nc2cc(NC(=O)CC)ccc21`, for which the AC35 was 18.9 µM.

Take `Clc1ccc(SCc2cc(N3CCOCC3)nc(-c3ccccn3)n2)cc1`: the AC35 was 9 µM.

Consider `COc1ccccc1C#Cc1ccc2c(c1)O[C@@H](CN(C)Cc1cccnc1)[C@H](C)CN([C@H](C)CO)S2(=O)=O`, for which the AC35 is 22.4 µM.

On to `CCN(CC)CCCNc1ccc2ncn3c4ccc(O)cc4c(=O)c1c23`, for which the AC35 is 1.03 µM.

As to `Oc1ccc2ccccc2c1C=NNc1ccccn1`, the AC35 was 7.59 µM.

Take `Cc1ccc(-c2ccc3c(c2)O[C@@H](CN(C)Cc2ccccn2)[C@H](C)CN([C@H](C)CO)S3(=O)=O)cc1`: the AC35 was 15.3 µM.

In the case of `COC(C(=O)C(O)C(C)O)C1Cc2cc3cc(OC4CC(OC5CC(O)C(O)C(C)O5)C(O)C(C)O4)c(C)c(O)c3c(O)c2C(=O)C1OC1CC(OC2CC(OC3CC(O)C(OC)C(C)O3)C(O)C(C)O2)C(O)C(C)O1` (stereo unspecified), the AC35 was 0.148 µM.

Consider `O=C(N/N=C/c1cccs1)c1cc(C2CC2)nc2ccccc12`, for which the AC35 was 21.1 µM.

For the compound `Cn1cccc1/C=C1\SC(=Nc2cccc(O)c2)NC1=O`, the AC35 is 14.2 µM.

In the case of `CCc1ccc(OCc2n[nH]c(=S)n2C(C)CCCC(C)C)cc1` (stereo unspecified), the AC35 was 13.9 µM.

Take `C[C@H]1CN([C@@H](C)CO)S(=O)(=O)c2ccc(C#Cc3ccc(F)cc3)cc2O[C@H]1CN(C)C(=O)NC1CCCCC1`: the AC35 was 11.9 µM.

For the compound `COc1ccc2c3c([nH]c2c1)[C@H](CO)N(C(=O)C1CCOCC1)CC31CCN(Cc2cccc(F)c2)CC1`, the AC35 is 2.74 µM.

With `Nc1c2ccccc2nc2ccccc12`, the AC35 was 2.63 µM.

In the case of `COC(=O)/C=C/c1ccccc1S(=O)(=O)N(Cc1ccccc1)Cc1ccco1`, the AC35 is 15.4 µM.

With `C1CCC(C(CC2CCCCN2)C2CCCCC2)CC1` (stereo unspecified), the AC35 is 6.26 µM.
